Experimental data taken from patent US20230183303A1, “Therapeutic Potential of Peptides from the "Netrin-Like" Domain of the FRZB Protein” (Université de Lorraine, priority 2020, published 2023).

Experiments:
alkaline phosphatase = conditions: 300 ng/ml, 1000 ng/ml; day 1 and day 21; vs CTL
Experimental: MC3T3-E1 cells were differentiated during 21 days as mentioned previously. […] Treated cells were compared to cells without any peptide stimulation (CTL).
We also assessed the specific alkaline phosphatase activity (μmol de para-nitrophenol/min/mg of protein). To that goal, we lysed the cells using 300 μL of a buffer containing 0.2 M Tris-Base, 1.6 mM MgCl2 pH 8.1 and 1% Triton X-100. Samples were then placed into tubes and put on ice for 30 min. During this time, we alternated periods of 30 sec vortex and 5 min on ice. Then, samples were sonicated, and centrifugated for 15 min at 13 000 g, 4° C. Supernatant was collected, and total protein concentration was evaluated using bicinchoninic acid assay.
Alkaline phosphatase activity was measured by placing the harvested supernatants in para-nitrophenyl phosphate (pNPP) solution. The alkaline phosphatase will cleave this substrate and generate para-nitrophenol (pNP).
A solution of 4 mg/mL of pNPP is prepared in buffer A (0.1 M glycine pH 10.5, 0.11% (m/v) Zinc acetate and 0.011% magnesium chloride (m/v)). […]
Absorbance is read at 410 nm on a Varioskan Flash apparatus. Alkaline phosphatase activity is calculated based on the standard curve (equation A410=a×quantity(ρNP)+b) with the following formula: activity=((A(410 nm)−b)×reaction volume)/(a×sample volume×reaction time)

MMP13 = MMP13 enzymatic activity in culture supernatants of human articular cartilage explants (osteoarthritis); format: cell-based; conditions: PEP16 at 300 ng/mL for 7 days (3 stimulations); explants from 3 patients with end-stage osteoarthritis
Experimental: Explants of human articular cartilage were obtained from total knee replacement surgeries, from the orthopedic department from the CHRU of Nancy (Pr. Didier Mainard). Samples were washed three times in 1% AB/PBS and incubated for 24 h in growth medium (DMEM-F12, containing 1% AB (Gibco), 10% FBS (Gibco) and 5% L-glutamine (Thermoscientific). Explants were then stimulated with PEP16 at the concentration of 300 ng/ml during 7 days. The culture supernatants were then harvested in order to perform MMP13 enzymatic activity assay.
The MMP13 enzymatic activity was assessed using the MMP13 fluorogenic substrate (Merck Millipore). Briefly, culture supernatants harvested at the end of the different experiments were mixed with 1.5 mM of 4-aminophenylmercuric acetate, and incubated for 1 h at 37° C., in order to turn every pro-MMPs into active MMPs. Then, the fluorogenic substrate was added, and the mixture was incubated for 3 h at 37° C. Fluorescence was evaluated using the following parameters, excitation 325 nm and emission 393 nm, on the Varioskan Flash device (Thermo Fisher Scientific). Recombinant human MMP13 was used as a positive control (Merck Millipore). Negative control consisted in growth medium.

MC3T3-E1 cells = assay: qRT-PCR relative expression of genes of interest in MC3T3-E1 cells (osteogenic differentiation); format: cell-based, mouse
Description: Each time point was processed in three technical replicates. The medium was changed every two days.
(§1) Total RNA was isolated using the Nucleospin RNA II kit (Macherey-Nagel) and reverse-transcribed using the MMLV reverse transcriptase (Thermo Fisher Scientific) following the manufacturers' instructions. The iTaq SYBR green qPCR master mix (BioRad) was used to assess the mRNA expression of target genes of interest. Primer sequences can be provided upon request. The following PCR conditions were used: 1 minute at 95° C., 40 cycles of 15 sec of denaturation at 95° C., followed by 1 minute of annealing-elongation at 60° C. Melting curve analysis was performed to determine the amplification of the specific product. Results were expressed using the comparative threshold method and were normalized to housekeeping gene PPIA (Peptidylprolyl Isomerase A) mRNA level for ATDC5 cells and MACs, or normalized to housekeeping gene S29 (ribosomal protein S29) mRNA level for MC3T3-E1 cells. The Via7 real-time PCR system (Thermo Fisher Scientific) was used for qRT-PCR measurements.
Briefly, MC3T3-E1 cells were differentiated during 14 days as mentioned previously. […] In the same experiment, we also used MC3T3-E1 cells stably overexpressing the NTN domain. Treated cells and NTN overexpressing cells were compared to control cells (CTL).
RNA was isolated and qPCR was performed for ANKRD (YAP/TAZ target gene, indicator of the pathway activity) (FIG. 21).

CamKII pathway = assay: Western blot of CamKII pathway activation in ATDC5 micromasses; format: cell-based, mouse; conditions: PEP16 at 100 and 300 ng/mL; pre-mineralization phase of chondrogenesis (D14)
Experimental: Mouse chondrogenic ATDC5 cells (cartilage-specific chondrogenic strain) were cultured until confluent in maintenance medium containing 1:1 Dulbecco's modified Eagle's medium (DMEM): Ham's F-12 mix (Gibco) supplemented with 1% antibiotic (AB, Penicillin-Streptomycin, Gibco), 5% fetal bovine serum (FBS) (Gibco) and enriched with […] human transferrin (Sigma) and 30 nM sodium selenite (Sigma). Cells were trypsinized, washed and resuspended at 2.10^7 cells/mL in a chondrogenic medium made of maintenance medium enriched by 1× of ITS premix (resulting in 10 μg/mL insulin, 10 μg/mL human transferrin and 30 nM sodium selenite) (Life technologies). One droplet of cell suspension (10 μL) was placed at the center of each well of a 24-well plate. Cells were allowed to adhere for 2 h at 37° C., followed by addition of 500 μL chondrogenic medium supplemented. […] After 14 days, induction of hypertrophic differentiation and mineralization was induced by the mineralization medium made of α-MEM medium (Gibco) containing 1% AB, 5% FBS, 5 μg/ml human transferrin, 1× of ITS premix, 50 μg/ml ascorbic acid-2-phosphate (AA) (Sigma) and 10 mM β-glycerophosphate (BGP) (Sigma). […] Micromasses were collected at time points 1, 7, 14 21 and 28 days. Each time point was processed in three technical replicates. The medium was changed every other day. […]

[1] = system: 7×TCF/LEF response elements (Super 8×TOPFlash reporter); assay: Promoter activation assay, Super 8×TOPFlash luciferase reporter in ATDC5 cells stimulated with Wnt3a; format: cell-based, mouse; conditions: peptide at 300 ng/ml; 10 or 100 ng/mL recombinant Wnt3a; 24 h
Experimental: Results were normalized by-cotransfecting each of the above plasmid with the tyrosine kinase-renilla luciferase plasmid (Promega). Transfections were carried out using the Dharmafect kb transfection reagent (Fisher Scientific). Briefly, reporter plasmids and transfection reagent were diluted in serum-free medium, and then the diluted Dharmafect kb was added to the plasmids for an incubation time of 10 minutes at room temperature. During that time, cells were rinsed with PBS and were placed in fresh maintenance medium. When incubation was over, the mixture of transfection reagent-plasmids was dispensed in each well. Stimulations (with Wnt3a and/or PEP16 and/or PEP16bis) were carried out the next day.

Wnt/β-catenin pathway = conditions: PEP16 at 300 or 1000 ng/mL; day 7, 14, 21; during osteogenesis
Experimental: Cells were maintained in a humidified atmosphere of 5% CO2 at 37° C.

ATDC5 micromasses = assay: qRT-PCR relative expression of genes of interest in ATDC5 micromass culture (chondrogenesis); format: cell-based, mouse
Experimental: Mouse chondrogenic ATDC5 cells (cartilage-specific chondrogenic strain) were cultured until confluent in maintenance medium containing 1:1 Dulbecco's modified Eagle's medium (DMEM): Ham's F-12 mix (Gibco) supplemented with 1% antibiotic (AB, Penicillin-Streptomycin, Gibco), 5% fetal bovine serum (FBS) (Gibco) and enriched with […] human transferrin (Sigma) and 30 nM sodium selenite (Sigma). Cells were trypsinized, washed and resuspended at 2.10^7 cells/mL in a chondrogenic medium made of maintenance medium enriched by 1× of ITS premix (resulting in 10 μg/mL insulin, 10 μg/mL human transferrin and 30 nM sodium selenite) (Life technologies). One droplet of cell suspension (10 μL) was placed at the center of each well of a 24-well plate. Cells were allowed to adhere for 2 h at 37° C., followed by addition of 500 μL chondrogenic medium supplemented. […] After 14 days, induction of hypertrophic differentiation and mineralization was induced by the mineralization medium made of α-MEM medium (Gibco) containing 1% AB, 5% FBS, 5 μg/ml human transferrin, 1× of ITS premix, 50 μg/ml ascorbic acid-2-phosphate (AA) (Sigma) and 10 mM β-glycerophosphate (BGP) (Sigma). […] Micromasses were collected at time points 1, 7, 14 21 and 28 days. Each time point was processed in three technical replicates. The medium was changed every other day. […] The genes of interest were articular chondrocyte markers (aggrecan, type 2 collagen (col2a1)), YAP/TAZ target genes (ctgf, ankrd) and pro-catabolic enzymes involved in the pathophysiology of OA (mmp3, mmp13).
as §1
(§2) ATDC5 cells were cultured as micromasses and differentiated during 14 days using ITS as mentioned previously. […] RNA was isolated and qPCR were performed for different target genes, i.e. type II collagen and aggrecan (articular chondrocyte extracellular matrix), CTGF (YAP/TAZ target genes, indicators of the pathway activity) and MMP3 (cartilage degrading enzyme increased during osteoarthritis) (FIG. 15). Alcian blue staining was performed on the micromasses cultures, and biochemical quantitation was performed as previously described (FIG. 16).
as §2, with “gene, indicator” for “genes, indicators”, “17).” for “15).”, “18).” for “16).”

[2] = PEP16 at 100 or 300 ng/mL, day 7, 14, 21, normalized with S29
[3] = 300 ng/ml, differentiated 14 days with ITS, D14 vs CTL
[4] = PEP16 at 30, 100, 300 ng/mL, day 1, 7, 14, 21, 28, vs non-treated control, normalized with ppia

DRLGKKVKRWDMKLRH (PEP16) [peptide derived from the netrin-like domain of the FRZB protein]
specific alkaline phosphatase activity (alkaline phosphatase): tended to increase the alkaline phosphatase activity
MMP13 enzymatic activity in culture supernatant (MMP13): capable of reducing the enzymatic activity
expression of ANKRD (YAP/TAZ target gene) (MC3T3-E1 cells; PEP16 at 300 ng/ml or cells stably overexpressing the NTN domain, D1 and D14, vs control cells): managed to do so
relative expression level of osteocalcin (MC3T3-E1 cells; [2]): favoured the induction of the expression
relative expression level of osterix (MC3T3-E1 cells; [2]): favoured the induction of the expression
CamKII pathway activation (P-CamKII over total) (CamKII pathway): increased the activation of the CamKII pathway
activity of the canonical Wnt pathway in the Super TOPFlash luciferase reporter system (Firefly/renilla ratio) [1]: significantly reduce the activity
Wnt/β-catenin pathway activation (Wnt/β-catenin pathway): reduced in the activation
MMP3 expression (ATDC5 micromasses; [3]): significant decrease
YAP/TAZ target genes (CTGF) expression (ATDC5 micromasses; [3]): significant decrease
articular chondrocyte extracellular matrix genes (type II collagen and aggrecan) expression (ATDC5 micromasses; [3]): significant increase
relative expression level of aggrecan (ATDC5 micromasses; [4]): significantly enhanced the induction of the expression
relative expression level of col2a1 (type 2 collagen) (ATDC5 micromasses; [4]): significantly enhanced the induction of the expression
relative expression level of ctgf (Hippo/YAP/TAZ target gene) (ATDC5 micromasses; [4]): efficiently reduced the expression
relative expression level of mmp3 (ATDC5 micromasses; [4]): efficiently reduced the expression
relative expression level of mmp13 (ATDC5 micromasses; [4]): efficiently reduced the expression
